In article PMC4336642 (Journal of neuroimmune pharmacology : the official journal …, 2015):
In brackets after ≈: the same amount, converted by molar mass.

Columns and labels:
[1] = system: A172 cells; assay: MTT cytotoxicity assay, astrocytes model; format: cell-based; conditions: Homo sapiens, A 172, 24 h, read-out: IC50, Astrocytes
[2] = system: SH-SY5Y cells; assay: MTT cytotoxicity assay, neurons model; format: cell-based; conditions: Homo sapiens, 24 h, read-out: IC50, Neurons
[3] = system: bEnd.3 cells; assay: MTT cytotoxicity assay, BBB model; format: cell-based, murine; conditions: Mus musculus, BEND3, 24 h, read-out: IC50, BBB
[4] = system: BV-2 cells; assay: MTT cytotoxicity assay, microglia model; format: cell-based, murine; conditions: Mus musculus, BV-2, 24 h, read-out: IC50, Microglia
[5] = system: HepG2 cells

How did the IC50 [1] turn out when `Cc1cn([C@H]2C[C@H](N=[N+]=[N-])[C@@H](CO)O2)c(=O)[nH]c1=O` [Z, 3’-azido-3’-deoxythymidine] was run?
Its IC50 is greater than 1000 µg/mL.

What about the IC50 [2] of the same compound?
Its IC50 is greater than 1000 µg/mL.

And the IC50 [3]?
Its IC50 is greater than 1000 µg/mL.

And the IC50 [4]?
Its IC50 is 800 µg/mL (≈ 2.99 mM).

And the “reduction in the mtDNA/nuDNA ratio / mitochondrial toxicity” value [5]?
The value was “two-fold reduction”.
